Key:
MDR1 (P-gp) = MDR1 (P-gp) (Homo sapiens (Human), UniProt P08183); experiment: MDR1 transfected LLC-PK1 permeability/efflux, Assay 6; details: pig, LLC-PK1, Assay 6 Pe Ratio, efflux ratio Papp(B-A)/Papp(A-B), MDR1 transfected LLC-PK1
EGFR = EGFR (Homo sapiens (Human), UniProt P00533); experiment: ErbB enzyme assay (CisBio HTRF KinEASE-TK), Assay 3; type: biochemical
Summary of the method: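 HTRF dual-wavelength read after 1 h detection; POC normalised to DMSO (100) and pre-quenched (0) controls, IC50 where 4-parameter curve crosses 50 POC. Reaction: 250 nM TK-substrate biotin, 1 mM ATP, pH 7.4 HEPES buffer with MgCl2, 30 min, 22 °C.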

[1] = molecular target: ErbB2 with Exon 20 YVMA insertion (HER2-YVMA) (Homo sapiens (Human), UniProt P04626, INS775YVMA); experiment: Cellular phosphorylation assay, constitutive ErbB2 phosphorylation (Y1196) in engineered NIH 3T3 cells, Assay 4; type: cell-based
Summary of the method: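 In-cell Western in NIH 3T3 cells carrying ErbB2 exon 20 YVMA insertion, with no ligand stimulation. One hour compound exposure at 37 °C before fixation and anti-pY1196 plus GAPDH staining with dual-wavelength fluorescence. IC50 derived after GAPDH normalization.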

ErbB2 WT = ErbB2 WT (Homo sapiens (Human), UniProt P04626); experiment: ErbB enzyme assay (CisBio HTRF KinEASE-TK), Assay 2; type: biochemical
Summary of the method: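 Readout is HTRF KinEASE-TK, using Sa-XL665 and cryptate antibody for 1 h at 22 °C, as percent of control between DMSO-only (100) and pre-quenched (0) reactions. The kinase reaction runs 30 min at 22 °C with 1 mM ATP and 250 nM biotinylated TK substrate, in HEPES pH 7.4 with MgCl2 and 2% DMSO.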

[2] = molecular target: ErbB2 insYVMA (HER2-YVMA, SEQ ID NO: 2) (Homo sapiens, UniProt P04626, INS775YVMA/P1170A); experiment: biochemical; details: ErbB2 insYVMA enzyme assay; read-out: Assay 1 IC50
EGFR wild type (EGFR WT) = EGFR wild type (EGFR WT) (Homo sapiens (Human), UniProt P00533); experiment: Cellular phosphorylation assay, EGF-stimulated EGFR phosphorylation in engineered NIH 3T3 cells, Phospho-EGFR DuoSet IC ELISA, Assay 5; type: cell-based
Summary of the method: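 Phospho-EGFR ELISA on lysates of engineered NIH 3T3 EGFR WT cells, IC50 derived from concentration curves. Cells plated at 20,000/well overnight, given compound dilutions 1 h at 37 °C, then rEGF 100 ng/ml for a further 10 min before lysis.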

Sequence of ErbB2 WT (P04626 23-1255): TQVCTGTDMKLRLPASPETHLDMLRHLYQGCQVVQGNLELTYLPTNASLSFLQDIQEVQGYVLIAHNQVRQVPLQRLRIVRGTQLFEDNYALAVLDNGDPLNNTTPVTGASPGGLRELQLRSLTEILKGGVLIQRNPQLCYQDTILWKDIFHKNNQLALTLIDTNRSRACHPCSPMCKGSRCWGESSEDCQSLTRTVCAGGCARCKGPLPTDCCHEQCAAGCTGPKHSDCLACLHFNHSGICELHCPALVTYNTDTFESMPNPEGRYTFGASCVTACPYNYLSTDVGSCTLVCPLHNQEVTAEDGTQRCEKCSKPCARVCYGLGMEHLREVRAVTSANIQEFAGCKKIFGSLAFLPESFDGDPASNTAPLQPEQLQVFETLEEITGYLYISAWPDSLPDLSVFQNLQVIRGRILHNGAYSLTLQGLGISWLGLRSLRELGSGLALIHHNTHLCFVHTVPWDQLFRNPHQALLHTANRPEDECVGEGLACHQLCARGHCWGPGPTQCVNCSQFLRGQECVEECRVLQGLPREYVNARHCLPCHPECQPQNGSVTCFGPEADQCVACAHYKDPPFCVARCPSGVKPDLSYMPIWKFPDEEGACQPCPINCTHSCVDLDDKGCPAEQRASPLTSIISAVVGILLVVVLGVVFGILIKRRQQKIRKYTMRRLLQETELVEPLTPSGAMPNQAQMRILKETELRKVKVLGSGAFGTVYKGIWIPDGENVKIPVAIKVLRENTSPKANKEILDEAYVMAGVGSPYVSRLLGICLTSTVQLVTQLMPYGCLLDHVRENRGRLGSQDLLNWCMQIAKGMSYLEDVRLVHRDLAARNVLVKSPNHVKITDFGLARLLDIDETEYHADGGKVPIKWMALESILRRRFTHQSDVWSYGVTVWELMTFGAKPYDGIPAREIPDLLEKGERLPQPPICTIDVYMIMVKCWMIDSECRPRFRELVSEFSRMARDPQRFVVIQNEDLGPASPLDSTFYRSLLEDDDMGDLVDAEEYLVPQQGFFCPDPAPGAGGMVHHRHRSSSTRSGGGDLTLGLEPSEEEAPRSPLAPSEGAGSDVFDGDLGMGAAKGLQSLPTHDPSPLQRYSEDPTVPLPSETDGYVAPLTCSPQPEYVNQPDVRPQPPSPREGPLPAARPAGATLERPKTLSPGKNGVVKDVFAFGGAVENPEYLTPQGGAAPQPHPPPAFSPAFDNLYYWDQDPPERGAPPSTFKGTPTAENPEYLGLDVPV
Sequence of EGFR wild type (EGFR WT) (P00533 25-1210): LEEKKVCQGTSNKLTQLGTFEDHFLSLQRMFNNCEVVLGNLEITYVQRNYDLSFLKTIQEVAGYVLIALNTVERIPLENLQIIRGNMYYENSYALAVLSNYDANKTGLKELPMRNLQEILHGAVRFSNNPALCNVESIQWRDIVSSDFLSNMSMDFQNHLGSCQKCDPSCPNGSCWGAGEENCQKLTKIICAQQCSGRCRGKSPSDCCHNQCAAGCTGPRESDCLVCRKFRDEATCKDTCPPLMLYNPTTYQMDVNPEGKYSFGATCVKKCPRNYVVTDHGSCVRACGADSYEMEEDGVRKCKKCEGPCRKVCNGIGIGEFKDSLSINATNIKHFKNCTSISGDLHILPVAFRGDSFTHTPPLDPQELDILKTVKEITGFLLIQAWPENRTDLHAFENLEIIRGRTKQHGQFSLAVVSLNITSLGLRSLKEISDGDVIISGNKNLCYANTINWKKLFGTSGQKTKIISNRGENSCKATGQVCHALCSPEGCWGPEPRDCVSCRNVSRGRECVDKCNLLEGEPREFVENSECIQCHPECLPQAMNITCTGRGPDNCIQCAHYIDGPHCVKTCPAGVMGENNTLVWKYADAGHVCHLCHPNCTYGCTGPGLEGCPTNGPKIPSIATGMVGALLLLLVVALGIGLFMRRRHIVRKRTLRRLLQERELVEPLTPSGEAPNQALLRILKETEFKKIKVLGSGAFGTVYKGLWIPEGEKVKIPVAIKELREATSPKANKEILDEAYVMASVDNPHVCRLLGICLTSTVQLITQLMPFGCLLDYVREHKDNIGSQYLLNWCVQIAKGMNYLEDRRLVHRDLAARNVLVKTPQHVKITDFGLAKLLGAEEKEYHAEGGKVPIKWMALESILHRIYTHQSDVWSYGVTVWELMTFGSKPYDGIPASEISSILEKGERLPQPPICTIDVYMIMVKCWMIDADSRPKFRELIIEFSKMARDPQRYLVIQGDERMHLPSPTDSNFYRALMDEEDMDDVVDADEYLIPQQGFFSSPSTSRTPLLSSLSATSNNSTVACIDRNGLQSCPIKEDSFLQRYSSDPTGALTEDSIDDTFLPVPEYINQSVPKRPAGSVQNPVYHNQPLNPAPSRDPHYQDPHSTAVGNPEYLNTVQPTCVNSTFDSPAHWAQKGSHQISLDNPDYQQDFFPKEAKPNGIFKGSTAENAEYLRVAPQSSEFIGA
Sequence of EGFR (P00533 25-1210): as above
Sequence of ErbB2 insYVMA (HER2-YVMA, SEQ ID NO: 2) (P04626 with tags, fused parts or gaps INS775YVMA/P1170A limits assumed): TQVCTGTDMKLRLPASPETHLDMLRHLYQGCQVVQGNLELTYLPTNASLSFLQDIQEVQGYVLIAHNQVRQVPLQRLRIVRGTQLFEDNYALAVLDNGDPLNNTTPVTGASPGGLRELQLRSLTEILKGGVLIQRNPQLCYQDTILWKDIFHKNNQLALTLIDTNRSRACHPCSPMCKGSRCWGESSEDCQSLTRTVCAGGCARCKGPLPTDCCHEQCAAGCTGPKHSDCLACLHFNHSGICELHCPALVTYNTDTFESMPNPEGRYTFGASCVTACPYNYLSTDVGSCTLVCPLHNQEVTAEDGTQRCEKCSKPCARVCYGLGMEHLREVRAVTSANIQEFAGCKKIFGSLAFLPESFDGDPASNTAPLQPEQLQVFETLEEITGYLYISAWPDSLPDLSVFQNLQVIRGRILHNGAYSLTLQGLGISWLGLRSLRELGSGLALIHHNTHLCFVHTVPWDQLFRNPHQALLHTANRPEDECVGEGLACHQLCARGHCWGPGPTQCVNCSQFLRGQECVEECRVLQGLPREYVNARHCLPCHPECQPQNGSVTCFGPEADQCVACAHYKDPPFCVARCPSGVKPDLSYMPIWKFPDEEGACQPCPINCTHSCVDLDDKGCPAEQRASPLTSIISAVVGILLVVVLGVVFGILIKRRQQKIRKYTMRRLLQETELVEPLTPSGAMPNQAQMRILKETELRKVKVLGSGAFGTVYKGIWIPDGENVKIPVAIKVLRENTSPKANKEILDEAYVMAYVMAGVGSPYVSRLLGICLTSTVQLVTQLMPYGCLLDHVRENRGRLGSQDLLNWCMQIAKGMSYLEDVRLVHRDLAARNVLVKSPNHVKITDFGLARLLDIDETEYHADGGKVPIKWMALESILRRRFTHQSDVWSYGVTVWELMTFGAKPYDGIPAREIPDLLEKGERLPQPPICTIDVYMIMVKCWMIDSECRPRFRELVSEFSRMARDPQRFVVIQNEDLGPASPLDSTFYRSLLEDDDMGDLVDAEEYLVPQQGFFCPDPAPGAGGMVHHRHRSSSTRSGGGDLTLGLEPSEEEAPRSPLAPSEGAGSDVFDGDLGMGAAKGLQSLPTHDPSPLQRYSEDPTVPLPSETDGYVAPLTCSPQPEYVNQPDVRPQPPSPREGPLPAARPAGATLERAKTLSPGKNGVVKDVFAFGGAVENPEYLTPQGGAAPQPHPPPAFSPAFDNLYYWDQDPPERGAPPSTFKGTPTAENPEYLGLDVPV

With Cc1cc(Nc2ncnc3cnc(-c4cscn4)nc23)ccc1Oc1ccc2c(c1)ncn2C [Example 235] as the compound, how does the efflux ratio at 2 h, 1 μM (MDR1 (P-gp)) read?
The efflux ratio at 2 h, 1 μM was 2.9.

What about the IC50 (EGFR) of the same compound?
Its IC50 is no less than 10 µM.

What about the IC50 [1] of the same compound?
Its IC50 is 0.0056 µM.

And the IC50 (ErbB2 WT)?
The IC50 was 0.0541 µM.

And the IC50 [2]?
The IC50 was 0.0745 µM.

And the IC50 (EGFR wild type (EGFR WT))?
The IC50 was no less than 5 µM.

Which efflux ratio at 2 h, 1 μM (MDR1 (P-gp)) does the source give for Cc1cc(Nc2ncnc3cnc(NCC(F)F)nc23)ccc1Oc1ccc2c(c1)ncn2C [Example 251] here?
The efflux ratio at 2 h, 1 μM was 2.3.

And the IC50 (EGFR)?
Its IC50 is 1.8 µM.

What about the IC50 [1] of the same compound?
The IC50 was 0.0066 µM.

And the IC50 (ErbB2 WT)?
The IC50 was 0.0212 µM.

What about the IC50 [2] of the same compound?
The IC50 was 0.0117 µM.

And the IC50 (EGFR wild type (EGFR WT))?
Its IC50 is no less than 5 µM.

How did the efflux ratio at 2 h, 1 μM (MDR1 (P-gp)) turn out when Cc1cc(Nc2ncnc3cnc(N4C[C@@H]5CCCN5C4=O)nc23)ccc1Oc1ccc2c(c1)ncn2C [Example 254] was run?
Its efflux ratio at 2 h, 1 μM is 9.9.

What about the IC50 (EGFR) of the same compound?
Its IC50 is no less than 10 µM.

What about the IC50 [1] of the same compound?
The IC50 was 0.044 µM.

And the IC50 (ErbB2 WT)?
Its IC50 is 0.114 µM.

And the IC50 [2]?
Its IC50 is 0.0532 µM.

And the IC50 (EGFR wild type (EGFR WT))?
Its IC50 is no less than 5 µM.

How did the efflux ratio at 2 h, 1 μM (MDR1 (P-gp)) turn out when Cc1cc(Nc2ncnc3cnc(NC4COC4)nc23)ccc1Oc1ccc2c(c1)ncn2C [Example 259] was run?
Its efflux ratio at 2 h, 1 μM is 8.8.

What about the IC50 (EGFR) of the same compound?
Its IC50 is no less than 10 µM.

And the IC50 [1]?
Its IC50 is 0.0196 µM.

And the IC50 (ErbB2 WT)?
Its IC50 is 0.0453 µM.

What about the IC50 [2] of the same compound?
Its IC50 is 0.0297 µM.

And the IC50 (EGFR wild type (EGFR WT))?
The IC50 was no less than 5 µM.

For Cc1cc(Nc2ncnc3cnc(N4CCC(C)S4(=O)=O)nc23)ccc1Oc1ccc2c(c1)ncn2C (stereo not drawn) [Example 267], which efflux ratio at 2 h, 1 μM (MDR1 (P-gp)) is on record?
Its efflux ratio at 2 h, 1 μM is 6.

And the IC50 (EGFR)?
Its IC50 is 3.95 µM.

What about the IC50 [1] of the same compound?
The IC50 was 0.0041 µM.

And the IC50 (ErbB2 WT)?
The IC50 was 0.0334 µM.

What about the IC50 [2] of the same compound?
The IC50 was 0.0343 µM.

What about the IC50 (EGFR wild type (EGFR WT)) of the same compound?
Its IC50 is no less than 5 µM.

Which efflux ratio at 2 h, 1 μM (MDR1 (P-gp)) does the source give for CCNc1ncc2ncnc(Nc3ccc(Oc4ccc5c(ccn5C)c4)c(C)c3)c2n1 [Example 269] here?
The efflux ratio at 2 h, 1 μM was 2.4.

What about the IC50 (EGFR) of the same compound?
Its IC50 is 2.4 µM.

What about the IC50 [1] of the same compound?
The IC50 was 0.0207 µM.

What about the IC50 (ErbB2 WT) of the same compound?
The IC50 was 0.0167 µM.

And the IC50 [2]?
Its IC50 is 0.0121 µM.

And the IC50 (EGFR wild type (EGFR WT))?
Its IC50 is no less than 5 µM.

Which efflux ratio at 2 h, 1 μM (MDR1 (P-gp)) does the source give for Cc1cc(Nc2ncnc3cnc(N[C@@H]4CCOC4)nc23)ccc1Oc1ccc2c(c1)ncn2C [Example 275] here?
The efflux ratio at 2 h, 1 μM was 6.

What about the IC50 (EGFR) of the same compound?
Its IC50 is 1.65 µM.

And the IC50 [1]?
The IC50 was 0.018 µM.

And the IC50 (ErbB2 WT)?
The IC50 was 0.0165 µM.

And the IC50 [2]?
Its IC50 is 0.0131 µM.

And the IC50 (EGFR wild type (EGFR WT))?
Its IC50 is no less than 5 µM.

How did the efflux ratio at 2 h, 1 μM (MDR1 (P-gp)) turn out when Cc1cc(Nc2ncnc3cnc(N[C@H]4CN(C)C[C@H]4F)nc23)ccc1Oc1ccc2c(c1)ncn2C [Example 279] was run?
The efflux ratio at 2 h, 1 μM was 16.6.

And the IC50 (EGFR)?
Its IC50 is 4.09 µM.

And the IC50 [1]?
The IC50 was 0.0012 µM.

What about the IC50 (ErbB2 WT) of the same compound?
Its IC50 is 0.0506 µM.

And the IC50 [2]?
The IC50 was 0.025 µM.

And the IC50 (EGFR wild type (EGFR WT))?
The IC50 was no less than 5 µM.

What does the source list for Cc1cc(Nc2ncnc3cnc(N4CCN(C)[C@@H](C)C4)nc23)ccc1Oc1ccc2c(c1)ncn2C [Example 280]?
efflux ratio at 2 h, 1 μM (MDR1 (P-gp)): 4; IC50 (EGFR): ≥ 10 µM; IC50 [1]: 0.0147 µM; IC50 (ErbB2 WT): 0.0782 µM; IC50 [2]: 0.0382 µM; IC50 (EGFR wild type (EGFR WT)): ≥ 5 µM

Cc1cc(Nc2ncnc3cnc(N4CCN(C)[C@H](C)C4)nc23)ccc1Oc1ccc2c(c1)ncn2C [Example 281] was tested. Which efflux ratio at 2 h, 1 μM (MDR1 (P-gp)) did it give?
Its efflux ratio at 2 h, 1 μM is 2.1.

What about the IC50 (EGFR) of the same compound?
The IC50 was no less than 10 µM.

And the IC50 [1]?
The IC50 was 0.0266 µM.

And the IC50 (ErbB2 WT)?
The IC50 was 0.0842 µM.

And the IC50 [2]?
Its IC50 is 0.0238 µM.

What about the IC50 (EGFR wild type (EGFR WT)) of the same compound?
Its IC50 is no less than 5 µM.

Which efflux ratio at 2 h, 1 μM (MDR1 (P-gp)) does the source give for Cc1cc(Nc2ncnc3cnc(O[C@H]4CCNC[C@H]4F)nc23)ccc1Oc1ccc2c(c1)ncn2C [Example 284] here?
Its efflux ratio at 2 h, 1 μM is 95.4.

What about the IC50 (EGFR) of the same compound?
Its IC50 is no less than 10 µM.

What about the IC50 [1] of the same compound?
Its IC50 is 0.0534 µM.

And the IC50 (ErbB2 WT)?
Its IC50 is 0.681 µM.

And the IC50 [2]?
Its IC50 is 0.0756 µM.

And the IC50 (EGFR wild type (EGFR WT))?
The IC50 was no less than 5 µM.

Which efflux ratio at 2 h, 1 μM (MDR1 (P-gp)) does the source give for Cc1cc(Nc2ncnc3cnc(O[C@H]4CCNC[C@@H]4F)nc23)ccc1Oc1ccc2c(c1)ncn2C [Example 285] here?
The efflux ratio at 2 h, 1 μM was 72.1.

And the IC50 (EGFR)?
Its IC50 is no less than 10 µM.

And the IC50 [1]?
The IC50 was 0.0532 µM.

And the IC50 (ErbB2 WT)?
The IC50 was 0.787 µM.

What about the IC50 [2] of the same compound?
Its IC50 is 0.0839 µM.

What about the IC50 (EGFR wild type (EGFR WT)) of the same compound?
The IC50 was no less than 5 µM.

Source: patent US11834453B2, “Substituted pyrimido[5,4-d]pyrimidines as HER2 inhibitors” (Array BioPharma Inc., priority 2020, dated 2023)
